Results as given in patent US20240245639A1, “Dermal Application of Retinoic Acid Receptor Agonists for Amelioration of Hypertrophic Scar” (Northwestern University, priority 2023, published 2024).

Key:
[1] = system: primary rabbit dermal fibroblasts; experiment: Ch55 treatment of rabbit dermal fibroblasts (morphology, ACTA2 qRT-PCR); format: cell-based; conditions: 1,000 nM, 24 hours
Protocol: Cell culture Primary human neonatal foreskin fibroblasts were obtained from the Skin Biology and Diseases Resource-based Center at Northwestern University. Primary rabbit dermal fibroblasts were isolated from female New Zealand White rabbits via harvesting full-thickness skin biopsies from rabbit ears, digesting overnight in a solution of 5 mg/mL dispase, and subsequently mechanically separating dermis from epidermis. After discarding epidermal tissue, dermal tissue was minced with a razor blade, and fibroblasts were liberated through collagenase-mediated digestion for growth in culture. […] Human fibroblasts and rabbit fibroblasts were cultured on tissue culture plastic (or, for immunofluorescence experiments, on glass coverslips) in DMEM+10% FBS and were serum starved in DMEM+0.1% FBS for 24 hours prior to drug treatments. When indicated, recombinant human TGF-β 1 was included in culture medium at a concentration of 10 ng/mL. Cultures were maintained in a humidified cell culture incubator at 37° C., 5% CO2, and ambient O2. For treatment with drugs and associated vehicle controls, the fraction of DMSO in the media was always maintained at <0.1% (v/v) in order to avoid confounding effects. […]

[2] = system: primary human foreskin fibroblasts; experiment: RNA-seq expression profiling of Ch55 effects; format: cell-based; conditions: 1,000 nM Ch55, 24 hours
Description: We then used goseq (Young et al., 2010) to query the KEGG database with the […] signature and the TGF-β-antagonizing signature. Extraction of KEGG annotations and associated pathways enriched in the […] signature (FIG. 3D) tended to refer to either general categories (e.g. “proteasome,” “cell cycle,” “phagosome”) or categories relevant to other specific cell types (e.g. “Epithelial cell signaling in H. pylori infection,” “Collecting duct acid secretion,” “Axon guidance”). […] We next computed normalized gene expression values for the DEGs extracted from the TGF-β-antagonizing signature and overlaid Ch55-induced relative expression effects on potentially fibrosis-relevant pathways of interest using Pathview Web (Luo et al., 2017).
Purified RNA harvested from primary cultured human foreskin fibroblasts pooled from three donors underwent TruSeq stranded mRNA-seq library preparation at the Northwestern University NUSeq core facility, followed by paired-end sequencing on an Illumina HiSeq 4000. Raw FASTQ files were imported into Galaxy (Jalili et al., 2020). Reads were trimmed using Trimmomatic (Bolger et al., 2014) utilizing default parameters, prior to aligning to the human genome (hg38 construction) using HISAT2 (Kim et al., 2019). Reads were assigned to genomic features using featureCounts (Liao et al., 2014), and differential expression among groups was determined, and principal component analysis constructed, using DESeq2 (Love et al., 2014) with multiple comparison adjustment performed by the Benjamini-Hochberg correction (Benjamini and Hochberg, 1995). Differentially-expressed genes were defined as false discovery rate-adjusted (FDR) P<0.05. Pathway analysis on KEGG databases (Kanehisa and Goto, 2000) were performed using goseq (Young et al., 2010) and Pathview Web (Luo et al., 2017). Z-scores were calculated from normalized count values and used to construct heatmaps. FPKM values were estimated using Stringtie (Pertea et al., 2015). Raw RNA-sequence data are available through the National Center for Biotechnology Information Sequence Read Archive accession number PRJNA921850, the contents of which is incorporated by reference in its entirety.

[3] = system: excisional wound-induced hypertrophic scarring in the ears of New Zealand White rabbits; experiment: Rabbit ear hypertrophic scar model; format: in vivo; conditions: POD28; for amount of type I collagen in the dermis (Western blot, densitometry) / erythema in developed scars: intradermal; for erythema in developed scars: three injections
Protocol: Harvested scars were processed and analyzed to determine scar elevation index (SEI), a common quantitative histological measurement used to assess scar hypertrophy (FIG. 17). […] MATERIALS AND METHODS Materials […] dihydrochloride hydrate, homoharringtonine, Ch55 and panobinostat were acquired from Fisher Scientific (Waltham, MA). AZD-7762 was acquired from Selleck Chemicals (Houston, TX). For in vitro work, emetine dihydrochloride hydrate was dissolved in sterile H2O at 50 mM. Homoharringtonine was dissolved in DMSO at 10 mg/mL. Panobinostat was dissolved in DMSO at 425 μM. […] Recombinant human TGF-β1 (Sigma-Aldrich) was dissolved in sterile H2O at 50 µg/mL. All-trans-retinoic acid (Thermo Scientific) was dissolved in DMSO at 10 mM. […] All animal experiments were approved prior to initiation by the Northwestern University Institutional Animal Care and Use Committee (IACUC). Rabbit experiments were performed in female New Zealand White rabbits (Envigo, Indianapolis, IN) of mass 2.5-3 kg. The hypertrophic scar model was performed as described in previous publications (Dolivo et al., Jia et al., 2017, Xie et al., 2020). Briefly, on each ear, six full-thickness circular excisional wounds of 7-mm diameter were created down to the perichondrium using biopsy punches, and excised tissue was removed gently using forceps. Wounds were covered with Tegaderm (3M Healthcare, St. Paul, MN) and wounds were allowed to re-epithelialize until post-operative day (POD) 12. […] Injections were performed on POD16, POD19, and POD22. On POD28, measurements of erythema were performed using a DermaLab Combo (CyberDerm, Broomall, PA) immediately prior to euthanasia and tissue harvest. Harvested scar tissues were incubated in 0.5M ammonium thiocyanate for 20 minutes, followed by mechanical separation of dermis and epidermis using a dissecting microscope. Isolated dermal tissues were minced with a razor blade, submerged in RIPA buffer, and homogenized in the presence of 2 mm zirconia beads using a MagNA Lyser (Roche, Basel, Switzerland). Alternatively, cell culture samples were detached from the culture surface by trypsinization, collected by centrifugation, and lysed in RIPA buffer. Protein concentrations of cell culture and tissue samples were determined using a DC protein assay (BioRad). Five micrograms of total protein were loaded onto polyacrylamide gels and subjected to SDS-PAGE before transfer to nitrocellulose membranes, blocking with 5% dry milk in TBS-T, and probing with target-specific primary antibodies overnight. Species-specific secondary antibody solutions were added to membranes, and chemiluminescent signal was developed with Amersham ECL Western blotting detection reagent using X-ray film. Harvested tissues were fixed in 10% neutral-buffered formalin for 24 hours before serial dehydration and embedding in paraffin. […] Slides were deparaffinized and rehydrated in xylene and serial ethanol. Tissue samples were stained with hematoxylin and eosin (H&E), Modified Masson's Trichrome stain (Scytek, Logan, UT), or picrosirius red/fast green according to standard protocols.

RAR-β = biological target: T1, RAR-β (Homo sapiens, UniProt P10826); conditions: cited from earlier work
T1 sequence (P10826 1-455): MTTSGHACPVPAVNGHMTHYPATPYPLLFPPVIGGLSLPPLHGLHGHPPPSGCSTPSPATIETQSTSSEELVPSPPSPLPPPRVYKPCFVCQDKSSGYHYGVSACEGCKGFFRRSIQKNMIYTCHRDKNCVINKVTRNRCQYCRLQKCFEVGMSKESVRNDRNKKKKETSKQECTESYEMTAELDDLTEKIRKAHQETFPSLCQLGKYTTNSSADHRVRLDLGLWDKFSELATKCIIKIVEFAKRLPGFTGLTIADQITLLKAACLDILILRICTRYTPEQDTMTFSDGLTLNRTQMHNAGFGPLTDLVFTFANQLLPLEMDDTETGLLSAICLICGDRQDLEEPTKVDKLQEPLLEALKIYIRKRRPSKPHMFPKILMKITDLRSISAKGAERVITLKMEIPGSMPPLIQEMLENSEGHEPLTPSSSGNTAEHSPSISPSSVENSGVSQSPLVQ

[4] = system: cellular retinoic acid binding protein (CRABP); conditions: cited from earlier work

**Q.** Which “effects on morphology and ACTA2 expression” value [1] does the source give for `CC(C)(C)c1cc(C(=O)/C=C/c2ccc(C(=O)O)cc2)cc(C(C)(C)C)c1` [Ch55] here?
**A.** comparable effects

**Q.** What about the “genes known to be targets or regulators of retinoic acid signaling (RNA-seq)” value [2] of the same molecule?
**A.** broad upregulation

**Q.** What about the “myofibroblast marker genes (RNA-seq)” value [2] of the same molecule?
**A.** significantly downregulated

**Q.** What about the “LRRC15+/Lrrc15+ signature-enriched genes significantly downregulated (number of genes)” value ([2]; RNA-seq) of the same molecule?
**A.** 67/117

**Q.** And the “LRRC15+/Lrrc15+ signature-enriched genes significantly downregulated (share of genes)” value ([2]; RNA-seq)?
**A.** ~57%

**Q.** And the “collagen density of the scars (Masson's Trichrome, picrosirius red/fast green)” value ([3]; Ch55-treated wounds)?
**A.** possible decrease

**Q.** And the “amount of type I collagen in the dermis (Western blot, densitometry)” value ([3]; high dose (10 μg))?
**A.** sufficient to reduce

**Q.** What about the “erythema in developed scars” value ([3]; high dose (10 μg)) of the same molecule?
**A.** significantly decreased

**Q.** And the “amount of type I collagen in the dermis (Western blot, densitometry)” value ([3]; low dose (2 μg))?
**A.** sufficient to reduce

**Q.** What about the “erythema in developed scars” value ([3]; low dose (2 μg)) of the same molecule?
**A.** not statistically significant

**Q.** What about the “affinity for RAR-β” value (RAR-β) of the same molecule?
**A.** high affinity

**Q.** What about the “affinity for CRABP” value [4] of the same molecule?
**A.** low affinity
